The record followed here is ChEMBL document CHEMBL6074654, “Inhibitors targeting the PWWP domain-containing proteins” (Eur J Med Chem, 2024).

Chain of Histone-lysine N-methyltransferase, H3 lysine-36 specific (Q96L73 whole entry): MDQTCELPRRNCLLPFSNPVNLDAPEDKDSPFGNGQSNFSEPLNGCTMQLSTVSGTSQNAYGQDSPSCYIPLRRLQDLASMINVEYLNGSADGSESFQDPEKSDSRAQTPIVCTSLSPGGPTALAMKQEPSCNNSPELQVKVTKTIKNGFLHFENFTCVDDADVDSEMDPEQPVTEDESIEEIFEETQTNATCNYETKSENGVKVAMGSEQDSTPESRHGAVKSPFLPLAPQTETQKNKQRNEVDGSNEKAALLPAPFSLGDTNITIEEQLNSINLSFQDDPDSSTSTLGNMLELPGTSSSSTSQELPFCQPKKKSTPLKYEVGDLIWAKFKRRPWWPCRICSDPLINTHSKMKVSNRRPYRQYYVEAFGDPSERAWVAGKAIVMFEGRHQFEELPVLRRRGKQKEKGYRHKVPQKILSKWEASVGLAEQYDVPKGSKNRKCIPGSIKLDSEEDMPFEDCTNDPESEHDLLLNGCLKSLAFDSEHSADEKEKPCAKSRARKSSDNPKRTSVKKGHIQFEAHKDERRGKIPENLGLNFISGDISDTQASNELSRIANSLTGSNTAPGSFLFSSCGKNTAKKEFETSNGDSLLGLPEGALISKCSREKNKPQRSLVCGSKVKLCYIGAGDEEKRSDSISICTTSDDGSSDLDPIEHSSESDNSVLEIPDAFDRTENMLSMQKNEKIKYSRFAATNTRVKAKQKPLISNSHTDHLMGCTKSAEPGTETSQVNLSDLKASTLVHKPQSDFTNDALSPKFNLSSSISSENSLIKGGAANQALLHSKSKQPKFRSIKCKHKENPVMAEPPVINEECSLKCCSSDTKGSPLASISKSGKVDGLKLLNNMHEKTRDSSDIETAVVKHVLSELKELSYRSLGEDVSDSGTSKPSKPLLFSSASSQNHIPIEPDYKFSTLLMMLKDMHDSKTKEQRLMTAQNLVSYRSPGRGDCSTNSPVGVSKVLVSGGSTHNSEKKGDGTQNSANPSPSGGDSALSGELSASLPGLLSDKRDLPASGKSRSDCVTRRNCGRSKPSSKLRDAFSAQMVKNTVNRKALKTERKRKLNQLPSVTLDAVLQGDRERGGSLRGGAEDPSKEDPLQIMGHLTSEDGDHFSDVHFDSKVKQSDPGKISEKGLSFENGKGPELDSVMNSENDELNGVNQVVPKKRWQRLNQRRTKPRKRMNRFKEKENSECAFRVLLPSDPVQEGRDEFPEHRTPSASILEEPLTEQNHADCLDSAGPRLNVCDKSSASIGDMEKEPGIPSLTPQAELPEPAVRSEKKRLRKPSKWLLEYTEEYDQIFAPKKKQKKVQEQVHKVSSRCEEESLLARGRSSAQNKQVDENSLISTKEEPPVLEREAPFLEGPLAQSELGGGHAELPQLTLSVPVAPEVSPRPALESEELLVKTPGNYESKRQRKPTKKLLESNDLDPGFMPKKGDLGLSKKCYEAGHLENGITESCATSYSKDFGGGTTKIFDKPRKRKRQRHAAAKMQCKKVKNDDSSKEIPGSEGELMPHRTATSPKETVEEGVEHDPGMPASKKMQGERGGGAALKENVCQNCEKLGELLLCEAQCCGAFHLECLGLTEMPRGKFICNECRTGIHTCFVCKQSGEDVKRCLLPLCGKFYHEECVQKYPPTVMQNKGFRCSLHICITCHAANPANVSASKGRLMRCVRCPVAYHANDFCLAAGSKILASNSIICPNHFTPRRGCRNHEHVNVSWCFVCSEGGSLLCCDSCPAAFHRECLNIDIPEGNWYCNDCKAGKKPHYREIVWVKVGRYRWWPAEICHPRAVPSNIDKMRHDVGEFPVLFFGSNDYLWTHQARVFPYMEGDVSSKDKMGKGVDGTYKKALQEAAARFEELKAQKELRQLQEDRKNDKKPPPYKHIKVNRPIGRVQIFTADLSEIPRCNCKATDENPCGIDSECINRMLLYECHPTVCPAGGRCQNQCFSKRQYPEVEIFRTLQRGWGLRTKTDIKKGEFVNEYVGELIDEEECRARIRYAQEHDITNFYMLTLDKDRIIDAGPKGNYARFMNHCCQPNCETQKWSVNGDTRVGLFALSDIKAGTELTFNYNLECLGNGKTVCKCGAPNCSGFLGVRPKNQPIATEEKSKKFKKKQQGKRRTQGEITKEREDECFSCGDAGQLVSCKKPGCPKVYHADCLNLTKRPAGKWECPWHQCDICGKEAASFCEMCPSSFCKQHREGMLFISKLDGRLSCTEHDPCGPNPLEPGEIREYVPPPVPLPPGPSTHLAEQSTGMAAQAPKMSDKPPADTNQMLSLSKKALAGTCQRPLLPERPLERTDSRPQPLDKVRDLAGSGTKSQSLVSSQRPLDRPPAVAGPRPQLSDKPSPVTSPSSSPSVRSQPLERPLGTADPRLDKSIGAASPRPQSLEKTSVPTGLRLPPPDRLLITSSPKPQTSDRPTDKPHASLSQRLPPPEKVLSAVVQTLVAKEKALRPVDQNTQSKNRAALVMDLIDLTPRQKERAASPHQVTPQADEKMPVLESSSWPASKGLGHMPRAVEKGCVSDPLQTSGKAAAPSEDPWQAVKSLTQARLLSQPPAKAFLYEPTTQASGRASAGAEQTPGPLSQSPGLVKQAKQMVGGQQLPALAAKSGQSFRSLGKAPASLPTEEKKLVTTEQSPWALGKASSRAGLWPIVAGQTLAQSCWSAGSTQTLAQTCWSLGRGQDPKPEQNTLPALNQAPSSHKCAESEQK

For one assay, the system named is U2OS. Description: Antiproliferative activity against human U2OS cells.
One may read the IC50 as the concentration at which inhibition is half-maximal. A higher IC50 goes with lower potency. For `O=C1COc2cc(C(=O)N(Cc3ccc(C(=O)Nc4ccncn4)cc3)C3CC3)ccc2N1`, half-maximal inhibition (IC50) required 1.2 µM.

In another assay the target is Protein cereblon/Histone-lysine N-methyltransferase NSD2 (Homo sapiens, UniProt O96028+Q96SW2). Description: PROTAC activity at CRBN/NSD2 in human VCaP cells assessed as induction of NSD2 degradation incubated for 24 hrs by immunoblot analysis. The format is cell-based. In general terms: A western blot detects proteins with antibodies after separation by electrophoresis.
Chain of Protein cereblon/Histone-lysine N-methyltransferase NSD2 (Q96SW2 whole entry, one chain of several): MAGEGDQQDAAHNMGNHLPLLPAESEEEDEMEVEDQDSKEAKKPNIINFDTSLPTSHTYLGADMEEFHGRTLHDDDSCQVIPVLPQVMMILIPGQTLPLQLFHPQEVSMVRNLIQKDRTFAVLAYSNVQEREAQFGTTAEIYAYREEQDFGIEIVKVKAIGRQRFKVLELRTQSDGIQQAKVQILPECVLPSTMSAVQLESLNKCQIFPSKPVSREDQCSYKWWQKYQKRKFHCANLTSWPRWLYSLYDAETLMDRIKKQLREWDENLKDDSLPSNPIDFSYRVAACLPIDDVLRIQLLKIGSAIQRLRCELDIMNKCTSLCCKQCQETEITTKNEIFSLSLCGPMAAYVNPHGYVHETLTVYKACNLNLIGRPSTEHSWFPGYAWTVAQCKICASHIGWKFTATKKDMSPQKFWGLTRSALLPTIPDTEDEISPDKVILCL
As a reminder, the DC50 is the concentration at which degradation of the target reaches its halfway point. With `N=C(N)NCCC[C@H](N)C(=O)NCCCCCCNC(=O)c1ccc(NC(=O)c2ccc(CN(C(=O)c3ccc4c(c3)OCC(=O)N4)C3CC3)cc2)cc1`, the DC50 worked out at 1.2 µM.

A further assay addresses Histone-lysine N-methyltransferase, H3 lysine-36 specific (Homo sapiens, UniProt Q96L73). Description: Inhibition of NSD1-SET (unknown origin).
`CC(C)C[C@H]1C(=O)N2CCCC2[C@]2(O)O[C@](NC(=O)[C@@H]3C=C4c5cccc6[nH]cc(c56)CC4N(C)C3)(C(C)C)C(=O)N12` (some centres not stated): the midpoint of inhibition, the IC50, lay at 4.9 µM.
Compound `Cc1cc(/C=C/c2ccc3cc(N(C)C)ccc3[n+]2C)c(C)n1-c1ccccc1` came in with an IC50 of 2.6 µM.
`O=C(O)c1ccccc1-c1c2cc(I)c(=O)c(I)c-2oc2c(I)c(O)c(I)cc12`: the IC50 amounted to 0.34 µM.
The same measure, in the same setting: the result for `CN1C[C@H](C(=O)N[C@]2(C)C[C@@]3(O)C4CCCN4C(=O)[C@H](Cc4ccccc4)N3C2=O)C=C2c3cccc4[nH]cc(c34)C[C@H]21` (some centres not stated) reads 5.9 µM.
On the same count and under the same terms, the figure for `C[C@H]1COC2=C1C(=O)C(=O)c1c2ccc2c1CCCC2(C)C` [CRYPTOTANSHINONE] is 3.5 µM.
As to `O=C1C=CC(=O)c2ccccc21` [NAPHTHOQUINONE], the half-inhibitory concentration (IC50) turned out to be 2 µM.
Same read-out and setting: the figure for `CC1=CC(=O)c2c(O)cccc2C1=O` [PLUMBAGIN] is 5.7 µM.
The same measure, in the same setting: the result for `COc1cc(NC(C)CCCN)c2ncccc2c1` (configuration not stated) [PRIMAQUINE] reads 1.8 µM; that for `Cc1coc2c1C(=O)C(=O)c1c-2ccc2c1CCCC2(C)C` [TANSHINONE IIA], 1.4 µM.
`Cc1coc2c1C(=O)C(=O)c1c-2ccc2c(C)cccc12` [TANSHINONE I] registered an IC50 of 3.1 µM.

The target of the next assay is T1, Histone-lysine N-methyltransferase NSD2 (Homo sapiens, UniProt O96028).
T1 sequence (O96028 whole entry): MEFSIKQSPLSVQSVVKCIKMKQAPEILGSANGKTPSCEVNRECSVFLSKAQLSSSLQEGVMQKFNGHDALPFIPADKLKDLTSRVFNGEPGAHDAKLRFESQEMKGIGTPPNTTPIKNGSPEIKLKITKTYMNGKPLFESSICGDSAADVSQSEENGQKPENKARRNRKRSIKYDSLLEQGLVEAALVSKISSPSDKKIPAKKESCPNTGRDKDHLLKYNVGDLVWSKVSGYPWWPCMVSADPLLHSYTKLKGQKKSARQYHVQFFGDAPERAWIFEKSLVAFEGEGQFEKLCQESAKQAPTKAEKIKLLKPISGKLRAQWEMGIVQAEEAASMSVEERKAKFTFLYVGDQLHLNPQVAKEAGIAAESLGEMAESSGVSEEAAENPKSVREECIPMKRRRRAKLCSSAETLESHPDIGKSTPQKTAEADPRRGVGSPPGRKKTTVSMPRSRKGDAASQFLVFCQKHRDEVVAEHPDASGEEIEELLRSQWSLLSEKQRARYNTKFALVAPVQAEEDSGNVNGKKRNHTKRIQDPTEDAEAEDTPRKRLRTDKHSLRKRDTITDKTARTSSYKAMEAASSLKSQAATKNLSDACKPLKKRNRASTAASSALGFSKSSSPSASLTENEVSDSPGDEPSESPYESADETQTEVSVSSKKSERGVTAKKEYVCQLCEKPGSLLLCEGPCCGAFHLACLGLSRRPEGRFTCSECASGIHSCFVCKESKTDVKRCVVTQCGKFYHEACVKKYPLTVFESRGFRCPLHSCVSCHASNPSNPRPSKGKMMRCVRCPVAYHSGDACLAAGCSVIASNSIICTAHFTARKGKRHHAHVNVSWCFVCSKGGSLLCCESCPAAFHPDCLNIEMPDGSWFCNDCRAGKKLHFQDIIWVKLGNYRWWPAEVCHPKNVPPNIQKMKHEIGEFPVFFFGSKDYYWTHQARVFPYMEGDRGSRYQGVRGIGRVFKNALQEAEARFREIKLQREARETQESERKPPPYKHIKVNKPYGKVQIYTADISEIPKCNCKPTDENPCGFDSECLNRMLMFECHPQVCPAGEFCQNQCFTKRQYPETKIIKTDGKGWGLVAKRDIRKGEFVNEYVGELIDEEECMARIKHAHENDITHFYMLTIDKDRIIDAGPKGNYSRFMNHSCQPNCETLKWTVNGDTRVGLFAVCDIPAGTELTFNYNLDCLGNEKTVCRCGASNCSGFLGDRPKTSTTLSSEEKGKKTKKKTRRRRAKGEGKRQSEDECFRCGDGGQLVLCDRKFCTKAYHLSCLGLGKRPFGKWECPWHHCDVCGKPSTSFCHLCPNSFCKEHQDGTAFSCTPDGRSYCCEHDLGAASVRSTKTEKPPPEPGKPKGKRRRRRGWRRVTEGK
Description: Inhibition of NSD2-SET domain (unknown origin).
Take `CCCN[C@@H](CC[C@H](N)C(=O)O)C[C@@H]1O[C@@H](n2cnc3c(N)ncnc32)[C@H](O)[C@@H]1O`: the IC50 was 3.3 µM.

Another assay has as its target DNA (cytosine-5)-methyltransferase 3A (Homo sapiens, UniProt Q9Y6K1). Description: Inhibition of DNMT3A (unknown origin).
As to `COc1ccc(Cl)cc1C(=O)NCCc1ccc(O)cc1`, half-maximal inhibition (IC50) required 36 µM.
The same measure, in the same setting: the result for `CCN(CC)CCNC(=O)c1ccc(NCCCCCCCCCCCCN2C(=O)c3ccccc3C2=O)cc1` reads 8.2 µM; that for `c1ccc2c(NCCNc3ncnc4cc(OCC5CCN(CCNc6ccnc7ccccc67)CC5)ccc34)cccc2c1`, 0.3 µM.
On the same count and under the same terms, the result for `Oc1cc(/C=N/Nc2nc3ccccc3s2)cc(O)c1O` reads 1.6 µM; that for `O=C1C=CC(=O)N1CCc1c[nH]c2ccccc12`, 3.2 µM; that for `O=C(O)C(Cc1c[nH]c2ccccc12)N1C(=O)C=CC1=O` (configuration not stated), 28 µM.

For the next assay, the target named is DNA (cytosine-5)-methyltransferase 1 (Homo sapiens, UniProt P26358). Description: Inhibition of DNMT1 (unknown origin).
Chain of DNA (cytosine-5)-methyltransferase 1 (P26358 whole entry): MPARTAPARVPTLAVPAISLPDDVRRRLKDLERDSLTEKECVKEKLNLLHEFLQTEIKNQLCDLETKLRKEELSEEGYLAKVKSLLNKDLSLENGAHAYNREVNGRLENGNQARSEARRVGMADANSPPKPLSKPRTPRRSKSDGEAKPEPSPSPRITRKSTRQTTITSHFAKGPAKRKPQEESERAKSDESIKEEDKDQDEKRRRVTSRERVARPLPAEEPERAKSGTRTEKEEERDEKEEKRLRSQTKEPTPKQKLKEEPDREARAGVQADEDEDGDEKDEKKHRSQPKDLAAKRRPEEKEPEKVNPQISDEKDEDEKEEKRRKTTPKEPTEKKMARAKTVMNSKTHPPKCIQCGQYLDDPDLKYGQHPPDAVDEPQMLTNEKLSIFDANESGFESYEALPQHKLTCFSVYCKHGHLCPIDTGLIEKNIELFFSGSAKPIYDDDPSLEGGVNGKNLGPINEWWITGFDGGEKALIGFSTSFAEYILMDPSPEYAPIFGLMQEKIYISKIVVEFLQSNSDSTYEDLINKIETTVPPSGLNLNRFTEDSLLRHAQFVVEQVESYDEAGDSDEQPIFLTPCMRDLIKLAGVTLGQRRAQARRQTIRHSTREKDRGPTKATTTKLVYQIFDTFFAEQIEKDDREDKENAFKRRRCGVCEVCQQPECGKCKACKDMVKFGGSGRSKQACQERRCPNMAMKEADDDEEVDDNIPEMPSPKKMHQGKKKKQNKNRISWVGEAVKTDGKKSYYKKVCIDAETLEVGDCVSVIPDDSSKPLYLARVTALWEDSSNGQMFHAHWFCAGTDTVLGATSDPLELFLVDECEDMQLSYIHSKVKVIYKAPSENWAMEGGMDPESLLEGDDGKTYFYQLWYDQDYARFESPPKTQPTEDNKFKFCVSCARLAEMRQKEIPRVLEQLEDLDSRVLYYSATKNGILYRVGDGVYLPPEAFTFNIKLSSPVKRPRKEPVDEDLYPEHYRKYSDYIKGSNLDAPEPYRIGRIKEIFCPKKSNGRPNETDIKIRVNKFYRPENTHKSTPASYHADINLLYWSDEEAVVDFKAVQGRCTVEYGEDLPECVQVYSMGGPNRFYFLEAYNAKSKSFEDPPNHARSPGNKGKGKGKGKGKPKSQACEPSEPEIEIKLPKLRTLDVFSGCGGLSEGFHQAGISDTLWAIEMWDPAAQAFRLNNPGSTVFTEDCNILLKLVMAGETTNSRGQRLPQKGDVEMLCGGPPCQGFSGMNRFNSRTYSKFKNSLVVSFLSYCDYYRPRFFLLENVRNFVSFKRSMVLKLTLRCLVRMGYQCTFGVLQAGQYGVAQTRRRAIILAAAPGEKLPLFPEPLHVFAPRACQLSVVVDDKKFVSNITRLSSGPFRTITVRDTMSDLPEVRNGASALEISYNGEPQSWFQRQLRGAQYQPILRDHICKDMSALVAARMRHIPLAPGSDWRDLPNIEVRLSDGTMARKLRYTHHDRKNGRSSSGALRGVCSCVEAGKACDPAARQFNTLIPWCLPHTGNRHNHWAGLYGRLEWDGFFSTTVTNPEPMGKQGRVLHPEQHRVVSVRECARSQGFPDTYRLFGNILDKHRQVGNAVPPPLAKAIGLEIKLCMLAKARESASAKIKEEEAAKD
For the compound `CCN(CC)CCNC(=O)c1ccc(NCCCCCCCCCCCCN2C(=O)c3ccccc3C2=O)cc1`, the IC50 amounted to 4.9 µM.
With `c1ccc2c(NCCNc3ncnc4cc(OCC5CCN(CCNc6ccnc7ccccc67)CC5)ccc34)cccc2c1`, inhibition was half-maximal at 20 µM (IC50).
`O=C1C=CC(=O)N1CCc1c[nH]c2ccccc12`: the IC50 worked out at 19 µM.
